Measurements: patent publication US20260001928A1 (CORTERIA PHARMACEUTICALS, priority 2022, published 2026)
pEC50: −log10 of the molar value. *1 amine or outer side, *2 acyl side, *3 side chain or, on linkers, in order; H or OH if unused. Where a SMILES comes first, the peptide text is derived from it. Side-chain parts run from the residue outwards. [ ]: non-standard residue; d: D form. The star is where a group is joined. C18 diacid = O=C(O)CCCCCCCCCCCCCCCCC(=O)*; γGlu = O=C(O)[C@H](CCC(=O)[*:2])N[*:1]; αMeL = CC(C)C[C@](C)(N)C(=O)O; αMeK = C[C@](N)(CCCCN)C(=O)O; Api = NC1(C(=O)O)CCNCC1; Dap = NC[C@H](N)C(=O)O; AEEA = NCCOCCOCC(=O)O

How the values were obtained:
human CRF2a receptor = molecular target: T1, human CRF2a receptor (Homo sapiens, UniProt Q13324); experiment: Activity at human CRF2a receptor, cAMP functional assay in TeloHEAC cells; assay type: cell-based; details: TeloHEAC cells stably expressing human CRF2a receptor, relative to urocortin 2 (100 nM = 100%)
T1 construct: expressed in transfected cells; host or cells: TeloHEAC cells
T1 sequence (Q13324 1-411): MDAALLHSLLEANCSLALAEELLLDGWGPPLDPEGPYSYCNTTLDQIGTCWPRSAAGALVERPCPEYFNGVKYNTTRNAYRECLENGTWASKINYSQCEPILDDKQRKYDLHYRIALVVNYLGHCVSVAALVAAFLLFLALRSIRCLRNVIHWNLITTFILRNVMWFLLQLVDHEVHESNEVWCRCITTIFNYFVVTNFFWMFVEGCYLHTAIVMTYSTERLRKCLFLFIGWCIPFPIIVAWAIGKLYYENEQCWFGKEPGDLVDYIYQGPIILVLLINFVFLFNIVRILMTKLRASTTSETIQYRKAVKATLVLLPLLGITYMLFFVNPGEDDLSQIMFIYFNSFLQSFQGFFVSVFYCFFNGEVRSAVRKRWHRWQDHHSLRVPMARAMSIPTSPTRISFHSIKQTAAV
In short: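 TeloHEAC cells stably expressing human CRF2a (10000 cells/well, suspended in HBSS/20 mM HEPES with 2 mM IBMX) were exposed to compounds for 30 min at 37 °C. cAMP was read as the 665/620 nm fluorescence ratio after 1 h at room temperature. EC50 was derived relative to 100 nM urocortin 2, set as 100%.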

CFR1R receptor = molecular target: T2, CFR1R receptor (Homo sapiens, UniProt P34998); experiment: Activity at anti-target CFR1R receptor, cAMP assay in CRF1R-overexpression CHO-K1 cells; assay type: cell-based; details: 100% = Sauvagine at 100 nM; for pEC50: cAMP
T2 construct: host or cells: CHO-K1 (clone 2)
T2 sequence (P34998 24-415): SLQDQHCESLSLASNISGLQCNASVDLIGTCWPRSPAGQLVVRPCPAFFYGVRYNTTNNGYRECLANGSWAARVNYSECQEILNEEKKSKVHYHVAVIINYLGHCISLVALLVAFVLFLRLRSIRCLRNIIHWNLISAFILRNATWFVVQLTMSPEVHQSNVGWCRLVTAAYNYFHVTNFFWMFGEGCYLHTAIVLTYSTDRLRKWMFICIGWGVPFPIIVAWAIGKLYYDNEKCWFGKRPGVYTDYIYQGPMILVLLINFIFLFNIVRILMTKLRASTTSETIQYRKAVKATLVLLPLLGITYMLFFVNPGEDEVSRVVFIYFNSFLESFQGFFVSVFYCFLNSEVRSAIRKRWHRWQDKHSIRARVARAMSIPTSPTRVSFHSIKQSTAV
In short: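 cAMP readout in CRF1R-overexpressing CHO-K1 cells (clone 2), run as for the TeloHAEC assay at 4000 cells/well final. Cells came from cryopreserved banks. Sauvagine at 100 nM defined 100% activation.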

Row | SMILES | pEC50 (human CRF2a receptor) | Emax (% I) (CFR1R receptor) | pEC50 (CFR1R receptor)
1 | CC[C@H](C)[C@H](NC(C)=O)C(=O)N[C@H](C(=O)N[C@@H](CC(C)C)C(=O)N[C@@H](CO)C(=O)N[C@@H](CC(C)C)C(=O)N[C@@H](CC(=O)O)C(=O)N[C@@H](C(=O)N1CCC[C@H]1C(=O)N[C@H](C(=O)N[C@@H](CCCCN)C(=O)N[C@@H](CC(C)C)C(=O)N[C@@H](CCCCNC(=O)COCCOCCNC(=O)COCCOCCNC(=O)CC[C@H](NC(=O)CCCCCCCCCCCCCCCCC(=O)O)C(=O)O)C(=O)N[C@@H](CCCCN)C(=O)N[C@H](C(=O)N[C@@H](CC(C)C)C(=O)N[C@@H](CC(C)C)C(=O)N[C@@H](CCC(=O)O)C(=O)N[C@@H](CCC(N)=O)C(=O)N[C@@H](CCC(=O)O)C(=O)N[C@@H](CCCCN)C(=O)N[C@@H](CCC(N)=O)C(=O)N[C@@H](CCCCN)C(=O)N[C@@H](CCCCN)C(=O)N[C@@H](CCC(N)=O)C(=O)N[C@@H](CCCNC(=N)N)C(=O)N[C@@H](CCC(=O)O)C(=O)N[C@@H](CCC(N)=O)C(=O)N[C@@H](C)C(=O)N[C@@H](CCC(=O)O)C(=O)N[C@H](C(=O)N[C@@H](CC(N)=O)C(=O)N[C@@](C)(CCCCN)C(=O)N[C@@H](CCC(N)=O)C(=O)N[C@H](C(=O)N[C@@H](CC(C)C)C(=O)N[C@@H](C)C(=O)N[C@@H](CCC(N)=O)C(=O)N[C@H](C(N)=O)C(C)C)[C@@H](C)CC)[C@@H](C)O)[C@@H](C)CC)[C@@H](C)CC)C(C)C)C(C)C [compound 106] (Ac-IVLSLD[dV]PIKLK([AEEA-AEEA-γGlu-C18 diacid])KILLEQEKQKKQREQAETN[αMeK]QILAQV-NH2) | 9.46 | 6 | < 6.60
2 | CC[C@H](C)[C@H](NC(C)=O)C(=O)N[C@H](C(=O)N[C@@H](CC(C)C)C(=O)N[C@@H](CO)C(=O)N[C@@H](CC(C)C)C(=O)N[C@@H](CC(=O)O)C(=O)N[C@@H](C(=O)N1CCC[C@H]1C(=O)N[C@H](C(=O)N[C@@H](CCCCN)C(=O)N[C@@](C)(CC(C)C)C(=O)N[C@@H](CCCCNC(=O)COCCOCCNC(=O)COCCOCCNC(=O)CC[C@H](NC(=O)CCCCCCCCCCCCCCCCC(=O)O)C(=O)O)C(=O)N[C@@H](CCCCN)C(=O)N[C@H](C(=O)N[C@@H](CC(C)C)C(=O)N[C@@H](CC(C)C)C(=O)N[C@@H](CCC(=O)O)C(=O)N[C@@H](CCC(N)=O)C(=O)N[C@@H](CCC(=O)O)C(=O)N[C@@H](CCCCN)C(=O)N[C@@H](CCC(N)=O)C(=O)N[C@@H](CCCCN)C(=O)N[C@@H](CCCCN)C(=O)N[C@@H](CCC(N)=O)C(=O)N[C@@H](CCCNC(=N)N)C(=O)N[C@@H](CCC(=O)O)C(=O)N[C@@H](CCC(N)=O)C(=O)N[C@@H](C)C(=O)N[C@@H](CCC(=O)O)C(=O)N[C@H](C(=O)N[C@@H](CC(N)=O)C(=O)N[C@H](C(=O)N[C@@H](CCC(N)=O)C(=O)N[C@H](C(=O)N[C@@H](CC(C)C)C(=O)N[C@@H](C)C(=O)N[C@@H](CCC(N)=O)C(=O)N[C@H](C(N)=O)C(C)C)[C@@H](C)CC)C(C)C)[C@@H](C)O)[C@@H](C)CC)[C@@H](C)CC)C(C)C)C(C)C [compound 111] (Ac-IVLSLD[dV]PIK[αMeL]K([AEEA-AEEA-γGlu-C18 diacid])KILLEQEKQKKQREQAETNVQILAQV-NH2) | 8.59 | −3 | < 6.60

More lines, now with the values ahead:

Row | pEC50 (human CRF2a receptor) | Emax (% I) (CFR1R receptor) | pEC50 (CFR1R receptor) | SMILES
3 | 8.84 | 0 | < 6.60 | CC[C@H](C)[C@H](NC(C)=O)C(=O)N[C@H](C(=O)N[C@@H](CC(C)C)C(=O)N[C@@H](CO)C(=O)N[C@@H](CC(C)C)C(=O)N[C@@H](CC(=O)O)C(=O)N[C@@H](C(=O)N1CCC[C@H]1C(=O)N[C@H](C(=O)N[C@@H](CCCCN)C(=O)N[C@@H](CC(C)C)C(=O)N[C@@H](CCCCNC(=O)COCCOCCNC(=O)COCCOCCNC(=O)CC[C@H](NC(=O)CCCCCCCCCCCCCCCCC(=O)O)C(=O)O)C(=O)N[C@@H](CCCCN)C(=O)N[C@H](C(=O)N[C@@H](CC(C)C)C(=O)N[C@@H](CC(C)C)C(=O)N[C@@H](CCC(=O)O)C(=O)N[C@@H](CCC(N)=O)C(=O)N[C@@H](CCC(=O)O)C(=O)N[C@@H](CCCCN)C(=O)N[C@@H](CCC(N)=O)C(=O)N[C@@H](CCCCN)C(=O)N[C@@H](CCCCN)C(=O)N[C@@H](CCC(N)=O)C(=O)N[C@@H](CCCNC(=N)N)C(=O)N[C@@H](CCC(=O)O)C(=O)N[C@@H](CCC(N)=O)C(=O)N[C@@H](C)C(=O)N[C@@H](CCC(=O)O)C(=O)N[C@H](C(=O)N[C@@H](CC(N)=O)C(=O)N[C@@H](CN)C(=O)N[C@@H](CCC(N)=O)C(=O)N[C@H](C(=O)N[C@@H](CC(C)C)C(=O)N[C@@H](C)C(=O)N[C@@H](CCC(N)=O)C(=O)N[C@H](C(N)=O)C(C)C)[C@@H](C)CC)[C@@H](C)O)[C@@H](C)CC)[C@@H](C)CC)C(C)C)C(C)C [compound 107] (Ac-IVLSLD[dV]PIKLK([AEEA-AEEA-γGlu-C18 diacid])KILLEQEKQKKQREQAETN[Dap]QILAQV-NH2)
4 | 8.94 | 4 | < 6.60 | CC[C@H](C)[C@H](NC(C)=O)C(=O)N[C@H](C(=O)N[C@@H](CC(C)C)C(=O)N[C@@H](CO)C(=O)N[C@@H](CC(C)C)C(=O)N[C@@H](CC(=O)O)C(=O)N[C@@H](C(=O)N1CCC[C@H]1C(=O)N[C@H](C(=O)N[C@@H](CCCCN)C(=O)N[C@@H](CC(C)C)C(=O)N[C@@H](CCCCNC(=O)COCCOCCNC(=O)COCCOCCNC(=O)CC[C@H](NC(=O)CCCCCCCCCCCCCCCCC(=O)O)C(=O)O)C(=O)N[C@@H](CCCCN)C(=O)N[C@H](C(=O)N[C@@H](CC(C)C)C(=O)N[C@@H](CC(C)C)C(=O)N[C@@H](CCC(=O)O)C(=O)N[C@@H](CCC(N)=O)C(=O)N[C@@H](CCC(=O)O)C(=O)N[C@@H](CCCCN)C(=O)N[C@@H](CCC(N)=O)C(=O)N[C@@H](CCCCN)C(=O)N[C@@H](CCCCN)C(=O)N[C@@H](CCC(N)=O)C(=O)N[C@@H](CCCNC(=N)N)C(=O)N[C@@H](CCC(=O)O)C(=O)N[C@@H](CCC(N)=O)C(=O)N[C@@H](C)C(=O)N[C@@H](CCC(=O)O)C(=O)N[C@H](C(=O)N[C@@H](CC(N)=O)C(=O)N[C@@H](CCC(=O)O)C(=O)N[C@@H](CCC(N)=O)C(=O)N[C@H](C(=O)N[C@@H](CC(C)C)C(=O)N[C@@H](C)C(=O)N[C@@H](CCC(N)=O)C(=O)N[C@H](C(N)=O)C(C)C)[C@@H](C)CC)[C@@H](C)O)[C@@H](C)CC)[C@@H](C)CC)C(C)C)C(C)C [compound 108] (Ac-IVLSLD[dV]PIKLK([AEEA-AEEA-γGlu-C18 diacid])KILLEQEKQKKQREQAETNEQILAQV-NH2)
5 | 9.00 | 4 | < 6.60 | CC[C@H](C)[C@H](NC(C)=O)C(=O)N[C@H](C(=O)N[C@@H](CC(C)C)C(=O)N[C@@H](CO)C(=O)N[C@@H](CC(C)C)C(=O)N[C@@H](CC(=O)O)C(=O)N[C@@H](C(=O)N1CCC[C@H]1C(=O)N[C@H](C(=O)N[C@@H](CCCCN)C(=O)N[C@@H](CC(C)C)C(=O)N[C@@H](CCCCNC(=O)COCCOCCNC(=O)COCCOCCNC(=O)CC[C@H](NC(=O)CCCCCCCCCCCCCCCCC(=O)O)C(=O)O)C(=O)N[C@@H](CCCCN)C(=O)N[C@H](C(=O)N[C@@H](CC(C)C)C(=O)N[C@@H](CC(C)C)C(=O)N[C@@H](CCC(=O)O)C(=O)N[C@@H](CCC(N)=O)C(=O)N[C@@H](CCC(=O)O)C(=O)N[C@@H](CCCCN)C(=O)N[C@@H](CCC(N)=O)C(=O)N[C@@H](CCCCN)C(=O)N[C@@H](CCCCN)C(=O)N[C@@H](CCC(N)=O)C(=O)N[C@@H](CCCNC(=N)N)C(=O)N[C@@H](CCC(=O)O)C(=O)N[C@@H](CCC(N)=O)C(=O)N[C@@H](C)C(=O)N[C@@H](CCC(=O)O)C(=O)N[C@H](C(=O)N[C@@H](CC(N)=O)C(=O)NC1(C(=O)N[C@@H](CCC(N)=O)C(=O)N[C@H](C(=O)N[C@@H](CC(C)C)C(=O)N[C@@H](C)C(=O)N[C@@H](CCC(N)=O)C(=O)N[C@H](C(N)=O)C(C)C)[C@@H](C)CC)CCNCC1)[C@@H](C)O)[C@@H](C)CC)[C@@H](C)CC)C(C)C)C(C)C [compound 109] (Ac-IVLSLD[dV]PIKLK([AEEA-AEEA-γGlu-C18 diacid])KILLEQEKQKKQREQAETN[Api]QILAQV-NH2)
